Data taken from patent publication US8518978B2, “Pharmaceutical composition for prevention and treatment of restenosis comprising isoxazole derivatives” (SK Biopharmaceuticals Co., Ltd., priority 2007, dated 2013).

Assays:
[1] = tested on: Wnt/β-catenin signal transduction (β-catenin activity) in HEK293 cell line; test: Cell based Wnt agonist screening system (Tcf/Lef firefly luciferase reporter) in HEK293 cell line; parameters: species or system human
Excerpt: (§1) Two kinds of human cancer cell lines HEK293 and SW480 were used to determine the ex vivo activity of the compounds according to one exemplary embodiment of the present invention.
(§2) In order to determine the activity of the wnt/β-catenin signal transduction in each cancer cell line, the present inventors introduced a gene as shown in FIG. 1 into cells, the gene having binding sites (5× TCFs) of Tcf/Lef transcription regulation protein to which β-catenin binds and having a firefly fluorescent protein (firefly luciferase) as a marker that can determine the activity of the Tcf/Lef transcription regulation protein. Then, the present inventors constructed a cell based Wnt agonist screening system by treating the gene-introduced cells with G418 to obtain a single clone of a cell line whose Tcf/Lef transcription regulation protein is continuously expressed due to the introduction of the gene. […]
(§3) When the prepared cell line was treated with lithium chloride (LiCl) that is a positive control in the cell based Wnt agonist screening system as the control for determining the Wnt agonist activity of the isoxazole derivative according to one exemplary embodiment of the present invention, an expression level of the fluorescent protein was measured, and plotted in a graph as shown in FIG. 3. […]

[2] = tested on: Wnt/β-catenin signal transduction (β-catenin activity) in SW480 cell line; test: Cell based Wnt agonist screening system (Tcf/Lef firefly luciferase reporter) in SW480 cell line; parameters: species or system human; conditions: Conc. 20000 μM, control that defines 100%
Excerpt: as §1, §2, §3

Compound	Emax at 120 µM ([1]; Homo sapiens, Conc. 120 μM, 24-hour treatment, relative to LiCl 20 mM = 100%, read-out: Relative Max. Activity (%))	Relative Max. Activity (%) ([1]; Conc. 20000 μM, control that defines 100%)	Relative Max. Activity (%) [2]
Nc1ccc(-c2cc(C(=O)NCCCn3ccnc3)no2)cc1 [Derivative 48, 5-(4-amino-phenyl)-isoxazole-3-carboxylic acid (3-imidazol-1-yl-propyl)-amide]	246%		
[Cl-].[Li+] [LiCl, lithium chloride, reference compound]		100%	100%
